Data reported in patent US20260325540A1 (priority 2023, published 2026).

Each compound was assayed against HCoV-229E 3CL protease (Human coronavirus 229E, UniProt P0C6U2) (assay: FRET based protease assay, HCoV-229E 3CL). Conditions: 229E IC50, 6 nM H229E-CoV Chis-3CLpro, 6 μM peptide 1 substrate, 25° C., 1.5 hrs, pH 7.5.
Type: biochemical

Chain of HCoV-229E 3CL protease (P0C6U2 2966-3267): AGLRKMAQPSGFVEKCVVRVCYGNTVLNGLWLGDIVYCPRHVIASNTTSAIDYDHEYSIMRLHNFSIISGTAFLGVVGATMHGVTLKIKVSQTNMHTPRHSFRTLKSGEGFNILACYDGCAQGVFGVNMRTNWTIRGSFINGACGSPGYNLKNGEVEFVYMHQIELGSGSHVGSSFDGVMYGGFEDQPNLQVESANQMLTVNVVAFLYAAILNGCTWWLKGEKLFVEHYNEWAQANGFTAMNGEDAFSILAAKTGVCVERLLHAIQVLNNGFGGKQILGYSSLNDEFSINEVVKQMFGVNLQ

SMILES	IC50
CC1(C(=O)N[C@H]2CCCC[C@H]3CNC(=O)[C@H]3C[C@@H](C#N)NC(=O)[C@@H]3[C@@H]4[C@H](CN3C2=O)C4(C)C)COC1 [Example 123]	< 0.1 µM
CC1(C)[C@@H]2[C@H]3C(=O)N[C@H](C#N)C[C@@H]4C(=O)NCC[C@@H]4CCCC[C@H](NC(=O)OC4CCCC4)C(=O)N3C[C@@H]21 [Example 124]	< 0.1 µM
CC(C)(C)OC(=O)N[C@H]1CCC[C@H]2CNC(=O)[C@H]2C[C@@H](C#N)NC(=O)[C@@H]2[C@@H]3[C@H](CN2C(=O)C1)C3(C)C [Example 125]	0.1 to 1 µM
CC(C)(C)OC(=O)N[C@@]1(C)CCCCC[C@H]2CNC(=O)[C@H]2C[C@@H](C#N)NC(=O)[C@@H]2[C@@H]3[C@H](CN2C1=O)C3(C)C [Example 126]	> 20 µM
CC(C)(C)OC(=O)N[C@H]1CCCC[C@H]2CNC(=O)[C@H]2C[C@@H](C#N)NC(=O)[C@@H]2[C@H]3CC[C@H](C3)N2C1=O [Example 127]	1 to 20 µM
CC(C)(C)OC(=O)N[C@@H]1CCCC[C@H]2CNC(=O)[C@H]2C[C@@H](C#N)NC(=O)[C@@H]2[C@@H]3[C@H](CN2C1=O)C3(C)C [Example 128]	> 20 µM
CC1(C)[C@@H]2[C@H]3C(=O)N[C@H](C#N)C[C@@H]4C(=O)NCC[C@@H]4CCCC[C@H](NC(=O)c4ccc(F)cc4F)C(=O)N3C[C@@H]21 [Example 129]	< 0.1 µM
CC1(C)C[C@H]2C(=O)N[C@H](C#N)C[C@@H]3C(=O)NC[C@@H]3CCCC[C@H](NC(=O)OC(C)(C)C)C(=O)N2C1 [Example 130]	< 0.1 µM
CC(C)(C)OC(=O)N[C@H]1CCCC[C@H]2CNC(=O)[C@H]2C[C@@H](C#N)NC(=O)[C@@H]2CC(F)(F)CN2C1=O [Example 131]	1 to 20 µM
CC(C)(C)OC(=O)N[C@H]1CCCC[C@H]2CNC(=O)[C@H]2C[C@@H](C#N)NC(=O)[C@@H]2CC3(CCN2C1=O)CC3 [Example 132]	< 0.1 µM
CC1(C)[C@@H]2[C@H]3C(=O)N[C@H](C#N)C[C@@H]4C(=O)NC[C@@H]4CCCC[C@H](NC(=O)c4cc(Cl)ccc4Cl)C(=O)N3C[C@@H]21 [Example 133]	< 0.1 µM
CC1(C)[C@@H]2[C@H]3C(=O)N[C@H](C#N)C[C@@H]4C(=O)NC[C@@H]4CCCC[C@H](NC(=O)c4cccc(Cl)c4Cl)C(=O)N3C[C@@H]21 [Example 134]	< 0.1 µM
CC1(C)[C@@H]2[C@H]3C(=O)N[C@H](C#N)C[C@@H]4C(=O)NCC[C@@H]4CCCC[C@H](NC(=O)C45CC(C(F)(F)F)(C4)C5)C(=O)N3C[C@@H]21 [Example 135]	0.1 to 1 µM
CC(C)(C)C[C@@H]1NC(=O)[C@@H](NC(=O)c2ccc(Cl)c(Cl)c2)CCCC[C@H]2CNC(=O)[C@H]2C[C@@H](C#N)NC1=O [Example 136]	< 0.1 µM
CC(C)(C)OC(=O)N[C@H]1CCCC[C@H]2CNC(=O)[C@H]2C[C@@H](C#N)NC(=O)[C@H](CC2CCCC2)NC1=O [Example 137]	< 0.1 µM
CC(C)(F)C[C@@H]1NC(=O)[C@@H](NC(=O)OC(C)(C)C)CCCC[C@H]2CNC(=O)[C@H]2C[C@@H](C#N)NC1=O [Example 138]	0.1 to 1 µM
CC1(C)[C@@H]2[C@H]3C(=O)N[C@H](C#N)C[C@@H]4C(=O)NC[C@@H]4CCCC[C@H](NC(=O)c4ccc(F)cc4C(F)(F)F)C(=O)N3C[C@@H]21 [Example 139]	< 0.1 µM
CN1C[C@@H]2CCCC[C@H](NC(=O)OC(C)(C)C)C(=O)N3C[C@H]4[C@@H]([C@H]3C(=O)N[C@H](C#N)C[C@@H]2C1=O)C4(C)C [Example 140]	1 to 20 µM
CC1(C)[C@@H]2[C@H]3C(=O)N[C@H](C#N)C[C@@H]4C(=O)NC[C@@H]4CCCC[C@H](NC(=O)C(C)(C)C(F)(F)F)C(=O)N3C[C@@H]21 [Example 141]	< 0.1 µM
CC(C)(C)C[C@@H]1NC(=O)[C@@H](NC(=O)c2ccc(F)c(C(F)(F)F)c2)CCCC[C@H]2CNC(=O)[C@H]2C[C@@H](C#N)NC1=O [Example 142]	0.1 to 1 µM
CC(C)(C)OC(=O)N[C@H]1CCCC[C@H]2CNC(=O)[C@H]2C[C@@H](C#N)NC(=O)[C@@H]2CCCCCN2C1=O [Example 143]	0.1 to 1 µM
CCO[C@@H]1C[C@H]2C(=O)N[C@H](C#N)C[C@@H]3C(=O)NC[C@@H]3CCCC[C@H](NC(=O)OC(C)(C)C)C(=O)N2C1 [Example 144]	0.1 to 1 µM
CCC(C)(C)[C@@H]1NC(=O)[C@@H](NC(=O)OC(C)(C)C)CCCC[C@H]2CNC(=O)[C@H]2C[C@@H](C#N)NC1=O [Example 145]	1 to 20 µM

SMILES	IC50
CC(C)(C)OC(=O)N[C@H]1CCCC[C@H]2CNC(=O)[C@H]2C[C@@H](C#N)NC(=O)[C@H]2N(CC(F)(F)C2(C)C)C1=O [Example 146]	0.1 to 1 µM
CO[C@@H]1C[C@H]2C(=O)N[C@H](C#N)C[C@@H]3C(=O)NC[C@@H]3CCCC[C@H](NC(=O)OC(C)(C)C)C(=O)N2C1 [Example 147]	0.1 to 1 µM
CC1(C)[C@@H]2[C@H]3C(=O)N[C@H](C#N)C[C@@H]4C(=O)NC[C@@H]4CCCC[C@H](NC(=O)C45CCC(C4)C5)C(=O)N3C[C@@H]21 [Example 148]	< 0.1 µM
CC(C)(C)C[C@@H]1NC(=O)[C@@H](NC(=O)C2(C(F)(F)F)CC2)CCCC[C@H]2CNC(=O)[C@H]2C[C@@H](C#N)NC1=O [Example 149]	< 0.1 µM
N#C[C@@H]1C[C@@H]2C(=O)NC[C@@H]2CCCC[C@H](NC(=O)C2(C(F)(F)F)CC2)C(=O)N2C[C@@H]3CCC[C@@H]3[C@H]2C(=O)N1 [Example 150]	< 0.1 µM
N#C[C@@H]1C[C@@H]2C(=O)NC[C@@H]2CCCC[C@H](NC(=O)C2(C(F)(F)F)CC2)C(=O)N2CCC3(CC3)C[C@H]2C(=O)N1 [Example 151]	< 0.1 µM
CC1(C)[C@@H]2[C@H]3C(=O)N[C@H](C#N)C[C@@H]4C(=O)NC[C@@H]4CCCC[C@H](NC(=O)OC4(C(F)(F)F)CCC4)C(=O)N3C[C@@H]21 [Example 152]	< 0.1 µM
CC1(C)[C@@H]2[C@H]3C(=O)N[C@H](C#N)C[C@@H]4C(=O)NC[C@@H]4CCCC[C@H](NC(=O)c4cc(C(F)(F)F)on4)C(=O)N3C[C@@H]21 [Example 153]	< 0.1 µM
CC1(C)[C@@H]2[C@H]3C(=O)N[C@H](C#N)C[C@@H]4C(=O)NC[C@@H]4CCCC[C@H](NS(=O)(=O)c4ccccc4)C(=O)N3C[C@@H]21 [Example 154]	< 0.1 µM
N#C[C@@H]1C[C@@H]2C(=O)NC[C@@H]2CCCC[C@H](NS(=O)(=O)c2ccc(F)cc2F)C(=O)N2C[C@@H]3CCC[C@@H]3[C@H]2C(=O)N1 [Example 155]	< 0.1 µM
CC1(C)[C@@H]2[C@H]3C(=O)N[C@H](C#N)C[C@@H]4C(=O)NC[C@@H]4CCCC[C@H](NS(=O)(=O)C4CC4)C(=O)N3C[C@@H]21 [Example 156]	< 0.1 µM
CC1(C)[C@@H]2[C@H]3C(=O)N[C@H](C#N)C[C@@H]4C(=O)NC[C@@H]4CCCC[C@H](NS(=O)(=O)c4ccc(F)cc4F)C(=O)N3C[C@@H]21 [Example 157]	< 0.1 µM
CC1(C)[C@@H]2[C@H]3C(=O)N[C@H](C#N)C[C@@H]4C(=O)NC[C@@H]4CCCC[C@H](NS(=O)(=O)C(F)(F)F)C(=O)N3C[C@@H]21 [Example 158]	< 0.1 µM
CC1(C)[C@@H]2[C@H]3C(=O)N[C@H](C#N)C[C@@H]4C(=O)NC[C@@H]4CCCC[C@H](NS(=O)(=O)C4(C)CC4)C(=O)N3C[C@@H]21 [Example 159]	< 0.1 µM
CC1(C)[C@@H]2[C@H]3C(=O)N[C@H](C#N)C[C@@H]4C(=O)NC[C@@H]4CCCC[C@H](NS(=O)(=O)C4CCC4)C(=O)N3C[C@@H]21 [Example 160]	< 0.1 µM
CC1(C)[C@@H]2[C@H]3C(=O)N[C@H](C#N)C[C@@H]4C(=O)NC[C@@H]4CCCC[C@H](N)C(=O)N3C[C@@H]21 [Example 161]	< 0.1 µM
CC1(C)[C@@H]2[C@H]3C(=O)N[C@H](C#N)C[C@@H]4C(=O)NC[C@@H]4CCCC[C@H](Nc4nccc(C(F)(F)F)n4)C(=O)N3C[C@@H]21 [Example 162]	< 0.1 µM
CC1(C)[C@@H]2[C@H]3C(=O)N[C@H](C#N)C[C@@H]4C(=O)NC[C@@H]4CCCC[C@H](Nc4cc(C(F)(F)F)ncn4)C(=O)N3C[C@@H]21 [Example 163]	< 0.1 µM
CC1(C)[C@@H]2[C@H]3C(=O)N[C@H](C#N)C[C@@H]4C(=O)NC[C@@H]4CCCC[C@H](Nc4ccnc(C(F)(F)F)n4)C(=O)N3C[C@@H]21 [Example 164]	< 0.1 µM
N#C[C@@H]1C[C@@H]2C(=O)NC[C@@H]2CCCC[C@H](Nc2nccc(C(F)(F)F)n2)C(=O)N2C[C@@H]3CCC[C@@H]3[C@H]2C(=O)N1 [Example 165]	0.1 to 1 µM
CC(C)(C)NC(=O)[C@@H]1CCCC[C@H]2CNC(=O)[C@H]2C[C@@H](C#N)NC(=O)[C@@H]2[C@@H]3[C@H](CN2C1=O)C3(C)C [Example 166]	1 to 20 µM
CC(C)(C)NC(=O)[C@H]1CCCC[C@H]2CNC(=O)[C@H]2C[C@@H](C#N)NC(=O)[C@@H]2[C@@H]3[C@H](CN2C1=O)C3(C)C [Example 167]	0.1 to 1 µM
CC(C)(C)OC(=O)NN1CCCC[C@H]2CNC(=O)[C@H]2C[C@@H](C#N)NC(=O)[C@@H]2[C@@H]3[C@H](CN2C1=O)C3(C)C [Example 168]	1 to 20 µM
